Reference: PMC2747815 (Journal of immunotherapy (Hagerstown, Md. : 1997), 2009)

Experiments:
[1] = tested on: LN cells of TRP1-/-//DR4+ (KO) and TRP1+/-//DR4+ (WT) mice, antigen pulsed onto DR4+ 1088 EBV-B; test: Ex vivo IFN-γ ELISPOT of LN cells from hTRP-1-immunized KO and WT mice; assay type: cell-based, mouse; details: for T cell frequency by ex vivo IFN-γ ELISPOT titration (mean): peptide 100 μM, Fig. 2D; for ex vivo ELISPOT reactivity, KO-derived compared with WT-derived CD4+ T cells: peptide 100 μM or protein 50 μg/ml pulsed onto 1088 EBV-B, 24 hours
HLA-DR4 (HLA-DRB1*0401) = HLA-DR4 (HLA-DRB1*0401) (Homo sapiens, UniProt P01903+P01911, A100K/A169T/F76Y/I96L/K127E/L162R/M171V/N62H/P40V/Q125Y/R42H/S133A/S149N/S66Y/V115G/V209L/W38E); details: competitive binding assay, purified class II, 48h in PBS with NP40; Fig. 1B
[2] = tested on: LN cells of DR4 Tg mice, antigen pulsed onto DR4+ 1088 EBV-B; test: IFN-γ ELISA of expanded LN T cells from mTRP-1-immunized DR4 Tg mice; assay type: cell-based, mouse; details: protein pulsed onto DR4+ 1088 EBV-B at 25 μg/ml; compared with mTRP-1 protein

Molecule | T cell frequency by ex vivo IFN-γ ELISPOT titration (mean) ([1]; TRP1+/-//DR4+ (WT) LN cells) | T cell frequency by ex vivo IFN-γ ELISPOT titration (mean) ([1]; TRP1-/-//DR4+ (KO) LN cells) | relative affinity (IC50), human variant compared with murine counterpart (HLA-DR4 (HLA-DRB1*0401)) | specific IFN-γ secretion by ELISA, protein [2] | ex vivo ELISPOT reactivity, KO-derived compared with WT-derived CD4+ T cells [1]
hTRP-1_277-297: HLA-DRB1*0401-restricted epitope from human TRP-1, positions 277-297 (ISPNSVFSQWRVVCDSLEDYD; UniProt P17643 277-297, looked up, fragment) | 158 | 163 | nearly three times less | – | –
hTRP-1 protein: recombinant human TRP-1 protein | – | – | – | superior | significantly greater
mTRP-1 protein: recombinant murine TRP-1 protein | – | – | – | – | significantly greater
OVA: recombinant full-length OVA protein purchased from Sigma, control protein (protein, UniProt P01012 1-386, looked up, full-length) MGSIGAASMEFCFDVFKELKVHHANENIFYCPIAIMSALAMVYLGAKDSTRTQINKVVRFDKLPGFGDSIEAQCGTSVNVHSSLRDILNQITKPNDVYSFSLASRLYAEERYPILPEYLQCVKELYRGGLEPINFQTAADQARELINSWVESQTNGIIRNVLQPSSVDSQTAMVLVNAIVFKGLWEKAFKDEDTQAMPFRVTEQESKPVQMMYQIGLFRVASMASEKMKILELPFASGTMSMLVLLPDEVSGLEQLESIINFEKLTEWTSSNVMEERKIKVYLPRMKMEEKYNLTSVLMAMGITDVFSSSANLSGISSAESLKISQAVHAAHAEINEAGREVVGSAEAGVDAASVSEEFRADHPFLFCIKHIATNAVLFFGRCVSP | – | – | – | No significant immune response | –
